Results: US9669036B2, “Modulation of reactivation of a latent virus” (priority 2013, dated 2017)

Tested on: latent HSV-1(F)
Format: cell-based
Details: for Significant Activation of Latent HSV / lowest effective concentration: ganglionic organ cultures in medium containing NGF and EGF; for Significant Activation of Latent HSV: three concentrations tested; for reactivation of HSV in trigeminal ganglia: ganglia harvested 30 days after infection, TSA 400 nM, MS275 or MC1568 10 μM, 20 μM; for lowest effective concentration: activation of latent HSV; for accumulation of viral mRNAs with cycloheximide compared with the drug alone / amounts of the LAT and miRNAs in cycloheximide-treated ganglia compared with the drug alone: cycloheximide 150 μg/ml, TSA 400 nM or NSC74859 10 μM
[1] = medium containing NGF and EGF, 24 h
[2] = NGF+EGF medium, 24 h, CTB 200 μM, 500 μM

SMILES: C[C@@H]1CCN(C(=O)CC#N)C[C@@H]1N(C)c1ncnc2[nH]ccc12 [Tofacitinib]
- Significant Activation of Latent HSV (24 h after excision): No

SMILES: Cn1cc(/C=C/C(=O)c2cccc(F)c2)cc1/C=C/C(=O)NO [MC1568, (E)-3-(4-((E)-3-(3-fluorophenyl)-3-oxoprop-1-enyl)-1-methyl-1H-pyrrol-2-yl)-N-hydroxyacrylamide]
- reactivation of HSV in trigeminal ganglia [1]: induced the reactivation of HSV

SMILES: Nc1ccccc1NC(=O)c1ccc(CNC(=O)OCc2cccnc2)cc1 [MS275, pyridin-3-ylmethyl 4-((2-aminophenyl)carbamoyl)benzylcarbamate]
- reactivation of HSV in trigeminal ganglia [1]: induced the reactivation of HSV

SMILES: COc1cc(/C=C/C(=O)CC(=O)/C=C/c2ccc(O)c(OC)c2)ccc1O [curcumin]
- reactivation of HSV and degradation of the LAT and miRNAs (curcumin 100 μM, 300 μM, 24 h, independent of medium (NGF+EGF or antibody to NGF)): blocked
- accumulation of the LAT (curcumin at the higher concentration (300 μM)): suppressed
- accumulation of small amounts of mRNAs normally detected at the time of excision of the ganglia (medium containing antibody to NGF, compared with freshly excised ganglia): suppressed

SMILES: NC1(c2ccc(-c3nc4ccn5c(=O)[nH]nc5c4cc3-c3ccccc3)cc2)CCC1 [MK-2206]
- lowest effective concentration (24 h): 2.5 nM lowest effective
- Significant Activation of Latent HSV (24 h after excision): Yes

SMILES: CS(=O)(=O)N1CCN(Cc2cc3nc(-c4cccc5[nH]ncc45)nc(N4CCOCC4)c3s2)CC1 [GDC-0941]
- lowest effective concentration (24 h): 10 nM lowest effective
- Significant Activation of Latent HSV (24 h after excision): Yes

SMILES: CO[C@H]1C[C@@H]2CC[C@@H](C)[C@@](O)(O2)C(=O)C(=O)N2CCCC[C@H]2C(=O)O[C@H]([C@H](C)C[C@@H]2CC[C@@H](O)[C@H](OC)C2)CC(=O)[C@H](C)/C=C(\C)[C@@H](O)[C@@H](OC)C(=O)[C@H](C)C[C@H](C)/C=C/C=C/C=C/1C [Rapamycin]
- lowest effective concentration (24 h): 1 nM lowest effective

SMILES: CC(/C=C/C(=O)NO)=C\[C@@H](C)C(=O)c1ccc(N(C)C)cc1 [TSA, Trichostatin A]
- accumulation of viral mRNAs with cycloheximide compared with the drug alone (NGF+EGF medium, 24 h): similar
- amounts of the LAT and miRNAs in cycloheximide-treated ganglia compared with the drug alone (NGF+EGF medium, 24 h): higher
- accumulation of mRNAs relative to freshly excised ganglia (NGF+EGF+TSA (400 nM), with or without cycloheximide 150 μg/ml, 24 h): 10 fold
- reactivation of HSV in trigeminal ganglia [1]: induced the reactivation of HSV

SMILES: Cc1sc2c(c1C)C(c1ccc(Cl)cc1)=N[C@@H](CC(=O)OC(C)(C)C)c1nnc(C)n1-2 [JQ1]
- Significant Activation of Latent HSV (24 h after excision): No

SMILES: CCOc1ccccc1C(=O)Nc1ccc(Cl)c(C(F)(F)F)c1 [CTB, N-(4-Chloro-3-trifluoromethyl-phenyl)-2-ethoxy-benzamide]
- decrease of miRNAs and the LAT following exposure to the drug [2]: approximately 10 fold
- increase of all viral mRNAs following exposure to the drug [2]: approximately 50 fold

SMILES: Cc1ccc(S(=O)(=O)OCC(=O)Nc2ccc(C(=O)O)c(O)c2)cc1 [NSC74859]
- accumulation of viral mRNAs with cycloheximide compared with the drug alone (NGF+EGF medium, 24 h): consistently lower
- amounts of the LAT and miRNAs in cycloheximide-treated ganglia compared with the drug alone (NGF+EGF medium, 24 h): higher
- representatives of all four temporally regulated groups of viral genes (ICP27, TK, VP16, UL41 mRNAs) (NGF+EGF medium, 24 h after excision, NSC74859 10 mM and 50 μM): upregulated

SMILES: COc1cc2c(NC3CCN(C(C)C)CC3)nc(C3CCCCC3)nc2cc1OCCCN1CCCC1 [UNC0638]
- Significant Activation of Latent HSV (24 h after excision): No

SMILES: Cn1c(=O)n(-c2ccc(C(C)(C)C#N)cc2)c2c3cc(-c4cnc5ccccc5c4)ccc3ncc21 [BEZ-235]
- lowest effective concentration (24 h): 40 nM lowest effective
- Significant Activation of Latent HSV (24 h after excision): Yes

SMILES: O=C(Nc1ccc2c(O)cc(S(=O)(=O)O)cc2c1)Nc1ccc2c(O)cc(S(=O)(=O)O)cc2c1 [AMI-1]
- Significant Activation of Latent HSV (24 h after excision): No
- Comments: activation of latent HSV (medium containing NGF and EGF, all concentrations tested): No activation

SMILES: Cc1[nH]c2ccccc2c1CCNCc1ccc(/C=C/C(=O)NO)cc1 [Panobinostat]
- lowest effective concentration (24 h): 0.5 nM lowest effective
